Laboratory results: patent US7138361B2, “Herbicidal heterocycles” (E. I. du Pont de Nemours and Company, priority 2000, dated 2006)

Columns and labels:
Type in all cases: in vivo
[1] = test system: morning glory (Ipomoea hederacea); experiment: Test B postemergence; conditions: 13 to 15 days
Outline: (§1)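 Ratings on a 0 to 100 visual scale (100 complete control) compare treated plants with controls 13 to 15 days after application. Treatments were pre- or postemergence sprays of compound in non-phytotoxic solvent with surfactant.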

[2] = test system: velvetleaf (Abutilon theophrasti); experiment: Test B postemergence; conditions: 13 to 15 days
Outline: as §1

[3] = test system: cocklebur (Xanthium strumarium); experiment: Test B postemergence; conditions: 13 to 15 days
Outline: as §1

[4] = test system: wheat (Triticum aestivum); experiment: Test B postemergence; conditions: 13 to 15 days
Outline: as §1

[5] = test system: barnyardgrass (Echinochloa crus-galli); experiment: Test B postemergence; conditions: 13 to 15 days
Outline: as §1

[6] = test system: giant foxtail (Setaria faberii); experiment: Test B postemergence; conditions: 13 to 15 days
Outline: as §1

[7] = test system: crabgrass (Digitaria sanguinalis); experiment: Test B postemergence; conditions: 13 to 15 days
Outline: as §1

[8] = test system: pigweed (Amaranthus retroflexus); experiment: Test B postemergence; conditions: 13 to 15 days
Outline: as §1

[9] = test system: Surinam grass (Brachiaria decumbens); experiment: Test B postemergence; conditions: 13 to 15 days
Outline: as §1

[10] = test system: lambsquarters (Chenopodium album); experiment: Test B postemergence; conditions: 13 to 15 days
Outline: as §1

[11] = test system: corn (Zea mays); experiment: Test B postemergence; conditions: 13 to 15 days
Outline: as §1

[12] = test system: blackgrass (Alopecurus myosuroides); experiment: Test B postemergence; conditions: 13 to 15 days
Outline: as §1

[13] = test system: wild oat (Avena fatua); experiment: Test B postemergence; conditions: 13 to 15 days
Outline: as §1

[14] = test system: rice (Oryza saliva); experiment: Test B flooded paddy test; conditions: Rate 1000 g/ha, scale of 0 to 100 where 0 is no effect and 100 is complete control, visually evaluated after 13 to 15 days
Protocol: (§2) At the same time, plants selected from these crop and weed species and also blackgrass (Alopecurus myosuroides), wheat (Triticum aestivum) and wild oat (Avena fatua) were treated with postemergence applications of test chemicals formulated in the same manner. Plants ranged in height from 2 to 18 cm (1- to 4-leaf stage) for postemergence treatments. Plant species in the flooded paddy test consisted of rice (Oryza saliva), smallflower flatsedge (Cyperus difformis), duck salad (Heteranthera limosa) and barnyardgrass (Echinochloa crus-galli) grown to the 2-leaf stage for testing. Treated plants and controls were maintained in a greenhouse for 13 to 15 days, after which time all species were compared to controls and visually evaluated. Plant response ratings, summarized in Table B, are based on a scale of 0 to 100 where 0 is no effect and 100 is complete control. A dash (-) response means no test result.

[15] = test system: smallflower flatsedge (Cyperus difformis); experiment: Test B flooded paddy test; conditions: Rate 1000 g/ha, scale of 0 to 100 where 0 is no effect and 100 is complete control, visually evaluated after 13 to 15 days
Protocol: as §2

[16] = test system: barnyardgrass (Echinochloa crus-galli); experiment: Test B flooded paddy test; conditions: Rate 1000 g/ha, scale of 0 to 100 where 0 is no effect and 100 is complete control, visually evaluated after 13 to 15 days
Protocol: as §2

[17] = test system: duck salad (Heteranthera limosa); experiment: Test B flooded paddy test; conditions: Rate 1000 g/ha, scale of 0 to 100 where 0 is no effect and 100 is complete control, visually evaluated after 13 to 15 days
Protocol: as §2

[18] = test system: morning glory (Ipomoea hederacea); experiment: Test B preemergence
Outline: as §1

[19] = test system: velvetleaf (Abutilon theophrasti); experiment: Test B preemergence
Outline: as §1

[20] = test system: rice (Oryza saliva); experiment: Test B preemergence
Outline: as §1

[21] = test system: cocklebur (Xanthium strumarium); experiment: Test B preemergence
Outline: as §1

[22] = test system: barnyardgrass (Echinochloa crus-galli); experiment: Test B preemergence
Outline: as §1

[23] = test system: giant foxtail (Setaria faberii); experiment: Test B preemergence
Outline: as §1

[24] = test system: crabgrass (Digitaria sanguinalis); experiment: Test B preemergence
Outline: as §1

[25] = test system: pigweed (Amaranthus retroflexus); experiment: Test B preemergence
Outline: as §1

[26] = test system: Surinam grass (Brachiaria decumbens); experiment: Test B preemergence
Outline: as §1

[27] = test system: corn (Zea mays); experiment: Test B preemergence
Outline: as §1

[28] = Rate 125 g/ha, scale 0 (no effect) to 100 (complete control)
[29] = Rate 500 g/ha, scale 0 to 100, 0 is no effect, 100 is complete control
[30] = Preemergence, Rate 500 g/ha, scale 0 to 100, 0 no effect, 100 complete control
[31] = preemergence, Rate 125 g/ha, scale of 0 to 100 where 0 is no effect and 100 is complete control, 13 to 15 days

CCOc1ccn(C2CCN(c3cccc(C(F)(F)F)c3)C2=O)n1 (centres unmarked) [Compound 61]
Plant response rating, Morningglory [1, 28]: 0
Plant response rating, Morningglory [1, 29]: 0
Plant response rating, Velvetleaf [2, 28]: 0
Plant response rating, Velvetleaf [2, 29]: 0
Plant response rating, Cocklebur [3, 28]: 0
Plant response rating, Cocklebur [3, 29]: 0
Plant response rating, Wheat [4, 28]: 0
Plant response rating, Wheat [4, 29]: 0
Plant response rating, Barnyardgrass [5, 28]: 0
Plant response rating, Barnyardgrass [5, 29]: 0
Plant response rating, Foxtail, Giant [6, 28]: 0
Plant response rating, Foxtail, Giant [6, 29]: 0
Plant response rating, Crabgrass [7, 28]: 0
Plant response rating, Crabgrass [7, 29]: 0
Plant response rating, Pigweed [8, 28]: 0
Plant response rating, Pigweed [8, 29]: 0
Plant response rating, Surinam grass [9, 28]: 0
Plant response rating, Surinam grass [9, 29]: 0
Plant response rating, Lambsquarters [10, 28]: 0
Plant response rating, Lambsquarters [10, 29]: 0
Plant response rating, Corn [11, 28]: 0
Plant response rating, Corn [11, 29]: 0
Plant response rating, Blackgrass [12, 28]: 0
Plant response rating, Blackgrass [12, 29]: 0
Plant response rating, Wild Oat [13, 28]: 0
Plant response rating, Wild Oat [13, 29]: 0
Plant response rating, Rice [14]: 0
Plant response rating, Flatsedge [15]: 20
Plant response rating, Barnyardgrass [16]: 0
Plant response rating, Ducksalad [17]: 30
Plant response rating, Morningglory [18, 30]: 0
Plant response rating, Morningglory [18, 31]: 0
Plant response rating, Velvetleaf [19, 30]: 0
Plant response rating, Velvetleaf [19, 31]: 0
Plant response rating, Rice [20, 30]: 0
Plant response rating, Rice [20, 31]: 0
Plant response rating, Cocklebur [21, 30]: 0
Plant response rating, Cocklebur [21, 31]: 0
Plant response rating, Barnyardgrass [22, 30]: 0
Plant response rating, Barnyardgrass [22, 31]: 0
Plant response rating, Foxtail, Giant [23, 30]: 0
Plant response rating, Foxtail, Giant [23, 31]: 0
Plant response rating, Crabgrass [24, 30]: 0
Plant response rating, Crabgrass [24, 31]: 0
Plant response rating, Pigweed [25, 30]: 0
Plant response rating, Pigweed [25, 31]: 0
Plant response rating, Surinam grass [26, 30]: 0
Plant response rating, Surinam grass [26, 31]: 0
Plant response rating, Corn [27, 30]: 0
Plant response rating, Corn [27, 31]: 0
